Experimental data as given in patent publication US20130267474A1, “NOVEL PHYTOCHEMICALS FROM EXTRACTS OF MAPLE SYRUPS AND MAPLE TREES AND USES THEREOF” (UNIVERSITY OF RHODE ISLAND, priority 2010, published 2013).
Read-outs that look alike come from different tables or passages of the source.

Tests used:
[1] = DPPH radical scavenging (antioxidant) assay; type: biochemical; conditions: for IC50, DPPH radical scavenging, converted (ca.): conversion of the μM value
Method: The DPPH radical scavenging activity of ascorbic acid (vitamin C) and the synthetic commercial antioxidant, butylated hydroxytoluene (BHT) are also assayed as positive controls (see Table 10). […] Absorbance is determined after 30 min at 515 nm, and the scavenging capacity (SC) is calculated as SC %=[(A0−A1/A0)]×100, where A0 is the absorbance of the reagent blank and A1 is the absorbance of the test samples. The control contained all reagents except the compounds, and all tests are performed in triplicate.
Absorbance is determined after 30 min at 515 nm, and the scavenging capacity (SC) is calculated as SC %=[(A0−A1/A0)]×100 where A0 is the absorbance of the reagent blank, and A1 is the absorbance with test samples. The control contained all reagents except the compounds and all tests are performed in triplicate.

[2] = test system: HT-29 (human colon adenocarcinoma); test: MTS cytotoxicity / antiproliferative assay; type: cell-based; conditions: Homo sapiens
Method: (§1) Cell lines included three human colon cancer cells: HT-29 (human colon adenocarcinoma), HCT116 (human colon carcinoma) and Caco-2 (human epithelial colorectal adenocarcinoma). In addition, normal human colon cells are included: CCD-^18Co (human colon fibroblasts). All cell lines are obtained from the American Type Culture Collection (ATCC, Rockville, Md., USA) and maintained at the University of Rhode Island.
(§2) The assay is carried out to measure the IC50 values for samples. […] Test samples and a positive control, etoposide 4 mg/mL (Sigma), are solubilized in DMSO by sonication. […] Control wells are also included on all plates. […] Each point on the curve is […]. Data (see tables 6 to 9) are expressed as mean±SE for three replications on each cell line.

[3] = test system: HCT-116 (human colon carcinoma); test: MTS cytotoxicity / antiproliferative assay; type: cell-based; conditions: Homo sapiens
Method: as §1, §2

[4] = test system: Caco-2 (human epithelial colorectal adenocarcinoma); test: MTS cytotoxicity / antiproliferative assay; type: cell-based; conditions: Homo sapiens
Method: as §1, §2

[5] = Table 10, mean ± standard deviation, 30 min, 515 nm, read-out: IC50 (μM), DPPH radical scavenging
[6] = HT-29, 48 h, read-out: HT-29 48 h(IC50), Table 6 maple compounds, 48 h, unit inferred
[7] = HT-29, 72 h, Table 6 maple compounds, 72 h, unit inferred, read-out: HT-29 72 h(IC50)
[8] = HCT-116, 48 h, read-out: HCT-116 48 h(IC50), Table 6 maple compounds, 48 h, unit inferred
[9] = HCT-116, 72 h, Table 6 maple compounds, 72 h, unit inferred, read-out: HCT-116 72 h(IC50)
[10] = HT-29, 72 h, 72 h, pure isolated compounds, read-out: Antiproliferative activity HT-29 72 h (IC50)
[11] = Caco-2, 48 h, read-out: Antiproliferative activity Caco-2 48 h (IC50), 48 h, pure isolated compounds
[12] = Caco-2, 48 h, read-out: Caco-2 48 h(IC50), Table 6 maple compounds, 48 h, unit inferred
[13] = Caco-2, 72 h, 72 h, pure isolated compounds, read-out: Antiproliferative activity Caco-2 72 h (IC50)
[14] = Caco-2, 72 h, Table 6 maple compounds, 72 h, unit inferred, read-out: Caco-2 72 h(IC50)
[15] = HCT-116, 48 h, read-out: Antiproliferative activity HCT-116 48 h (IC50), 48 h, pure isolated compounds
[16] = HCT-116, 72 h, 72 h, pure isolated compounds, read-out: Antiproliferative activity HCT-116 72 h (IC50)
[17] = HCT-116, 72 h, 72 h, range given for the group, read-out: IC50 against HCT-116 cells at 72 h (activity ranking)
[18] = HT-29, 48 h, read-out: Antiproliferative activity HT-29 48 h (IC50), 48 h, pure isolated compounds

| Compound | IC50 [1, 5] [µM] | IC50 [2, 7] [µM] | IC50 [3, 8] [µM] | IC50 [3, 9] [µM] | IC50 [2, 10] [µM] | IC50 [3, 15] [µM] | IC50 [3, 16] [µM] | IC50 [3, 17] [µM] | also measured |
| --- | --- | --- | --- | --- | --- | --- | --- | --- | --- |
| 2,4,5-trihydroxyacetophenone [compound 13] | 68.9 ± 5.7 |  |  |  |  |  |  |  |  |
| 5-(3″,4″-dimethoxyphenyl)-3-hydroxy-3-(4′-hydroxy-3′-methoxybenzyl)-4-hydroxymethyl-dihydrofuran-2-one [compound 24] | 254 ± 32.5 |  |  |  |  |  |  |  |  |
| O=C1O[C@H]([C@@H](O)CO)C(O)=C1O [Ascorbic acid, reference compound] | 40.2 ± 13.4 |  |  |  |  |  |  |  | IC50, DPPH radical scavenging, converted (ca.) [1]: ca. 7.08 μg/mL; IC50 ([1]; listed as Vitamin C, read-out: IC50, DPPH radical scavenging (text)): 40 µM; IC50 ([1]; listed as vitamin C, read-out: IC50, DPPH radical scavenging (text)): 58 µM |
| Cc1cc(C(C)(C)C)c(O)c(C(C)(C)C)c1 [BHT, butylated hydroxytoluene, reference compound] | 3000 ± 1120 |  |  |  |  |  |  |  | IC50, DPPH radical scavenging, converted (ca.) [1]: ca. 660 μg/mL; IC50 ([1]; running text, listed as butylatedhydroxytoluene, read-out: IC50, DPPH radical scavenging (text)): 2650 µM; IC50 ([1]; running text, read-out: IC50, DPPH radical scavenging (text)): 3000 µM |
| COc1cc(/C=C/C(=O)O)ccc1O [Ferulic Acid] |  | 121 | 119 | 104 |  |  |  |  | IC50 [2, 6]: 128 µM |
| COc1cc([C@@H](O)[C@@H](CO)Oc2ccc(CCCO)cc2OC)ccc1O [compound 6, erythro-guaiacylglycerol-β-O-4′-dihydroconiferyl alcohol] |  | 110 | 107 | 98.6 | 110 ± 2 | 107 ± 2.3 | 98.6 ± 3.2 | 94 to 110 | IC50 [4, 11]: 93.9 ± 2 µM; IC50 [4, 12]: 93.9 µM; IC50 [4, 13]: 88.5 ± 1 µM; IC50 [4, 14]: 88.5 µM |
| COc1cc(/C=C/c2ccc(O)c(OC)c2)ccc1O [compound 10, (E)-3,3′-dimethoxy-4,4′-dihydroxystilbene] | 578.5 ± 1.3 |  |  |  |  |  |  |  | IC50 [4, 14]: 93.1 µM |
| COc1cc(C=O)ccc1O [compound 15, vanillin] | 1810 ± 266 | 114 | 120 | 110 | 114 ± 1.5 | 120.3 ± 1 | 110 ± 1.7 | 94 to 110 |  |
| COc1cc(C=O)cc(OC)c1O [compound 16, syringaldehyde] |  |  |  |  |  |  |  |  | IC50 ([2]; HT-29, 48 h, read-out: Antiproliferative activity HT-29 48 h (IC50)): 90.7 ± 3 µM; IC50 ([2]; HT-29, 48 h, read-out: HT-29 48 h(IC50)): 90.7 µM; IC50 ([2]; HT-29, 72 h, read-out: Antiproliferative activity HT-29 72 h (IC50)): 68.6 ± 1.4 µM; IC50 ([2]; HT-29, 72 h, read-out: HT-29 72 h(IC50)): 68.6 µM; IC50 ([4]; Caco-2, 48 h, read-out: Antiproliferative activity Caco-2 48 h (IC50)): 59.4 ± 2.7 µM; IC50 ([4]; Caco-2, 48 h, read-out: Caco-2 48 h(IC50)): 59.4 µM; IC50 ([4]; Caco-2, 72 h, read-out: Antiproliferative activity Caco-2 72 h (IC50)): 35.9 ± 2.4 µM; IC50 ([4]; Caco-2, 72 h, read-out: Caco-2 72 h(IC50)): 35.9 µM; IC50 ([3]; HCT-116, 48 h, read-out: Antiproliferative activity HCT-116 48 h (IC50)): 66.8 ± 1.3 µM; IC50 ([3]; HCT-116, 48 h, read-out: HCT-116 48 h(IC50)): 66.8 µM; IC50 ([3]; HCT-116, 72 h, read-out: Antiproliferative activity HCT-116 72 h (IC50)): 56.3 ± 1.8 µM; IC50 ([3]; HCT-116, 72 h, read-out: HCT-116 72 h(IC50)): 56.3 µM; IC50 ([3]; HCT-116, 72 h, read-out: IC50 against HCT-116 cells at 72 h (activity ranking)): 42 to 67 µM |
| O=C(O)c1cc(O)c(O)c(O)c1 [compound 17, gallic acid] |  |  | 64.9 | 42.1 |  | 64.9 ± 2.3 | 42.1 ± 1.9 | 42 to 67 | IC50 [4, 13]: 89.3 ± 1.7 µM; IC50 [4, 14]: 89.3 µM |
| COc1cc(C(=O)O)cc(OC)c1O [compound 19, syringic acid] |  | 116 | 119 | 108 | 116 ± 1.8 | 119 ± 1.3 | 108 ± 0.9 | 94 to 110 | IC50 [2, 18]: 126 ± 1.8 µM; IC50 [2, 6]: 126 µM |
| COc1cc(/C=C/CO)cc(OC)c1O [compound 20, syringenin] | 322 ± 31.9 | 113 | 124 | 108 | 113 ± 1.5 | 123.5 ± 1.1 | 108 ± 1.5 | 94 to 110 | IC50 [2, 18]: 126 ± 3 µM; IC50 [2, 6]: 126 µM |
| COc1cc(/C=C/CO)ccc1O [compound 21, (E)-coniferol] |  | 113 | 111 | 84.6 | 113 ± 1.9 | 111 ± 1.5 | 84.6 ± 1.9 |  | IC50 [4, 11]: 112 ± 2 µM; IC50 [4, 12]: 116 µM; IC50 [4, 13]: 96.4 ± 2.9 µM; IC50 [4, 14]: 96.4 µM; IC50 ([3]; HCT-116, 72 h, 72 h, range given for the group, unit inferred, read-out: IC50 against HCT-116 cells at 72 h (moderately active group)): 75 to 85 µM |
| COc1cc(C(O)C(CO)Oc2c(OC)cc(C(O)C(O)CO)cc2OC)ccc1O (stereo not drawn) [compound 25, (erythro,erythro)-1-[4-[2-hydroxy-2-(4-hydroxy-3-methoxyphenyl)-1-(hydroxymethyl)ethoxy]-3,5-dimethoxyphenyl]-1,2,3-propanetriol] | 97.8 ± 24 |  |  |  |  |  |  |  |  |
| COc1cc(C(O)C(CO)Oc2ccc(C(O)C(O)CO)cc2OC)ccc1O (stereo not drawn) [compound 27] | 164 ± 15.2 |  |  |  |  |  |  |  |  |
